Data set [1] is described as follows: Potentiometric pKa determination (Sirius T3). Type of data set: physicochemical. The following applies: for exppKa: Sirius T3, Yasuda-Shedlovsky extrapolation to 0% methanol, first or only value. An excerpt:
(§1) Confirmed IDO1 ligands were profiled for the calculation and experimental determination of their acidic constant (calcpKa, exppKa) and n-octanol/water partition coefficient (calclogP, explogP). […] Four of these compounds (19–22) were titrated with a potentiometric method to determine the relative exppKa and explogP, using a Sirius T3 instrument. The remaining two compounds (16, 17) were not experimentally analyzed because their calcpKa values were too close to the upper detection limit of the Sirius T3 instrument.
(§2) Acidic constants (pKa) and octanol/water partition coefficients (logP) of confirmed hit compounds were firstly calculated using the pKa and logP plugins of the program Marvin (Marvin v20.11, ChemAxon, Budapest, Hungary).
(§3) The experiments were set up with Sirius T3 control software (Sirius T3 v1.1.3.0, Pion Inc. Ltd., Forest Row, East Sussex, UK), specifying the volume of the stock solution to be used, molecular weight, number of expected pKa and their calculated values (calcpKa), predicted logP (calclogP), and titration mode (from pH = 2 to 12 for basic compounds, and from pH = 12 to 2 for acidic compounds). To avoid issues of poor solubility during the titration in ISA water, the pKa analyses were carried out in triplicate with different ratios of organic cosolvent methanol and water (50%, 40%, and 30% methanol). Considering the modification of water’s dielectric constant in the presence of an organic solvent, the pKa at 0% of co-solvent was obtained through the method of Yasuda–Shedlovsky (YS) extrapolation to zero [58]. The validity of the analysis was assessed with the r^2 of the YS method, and results were considered acceptable with an r^2 ≥ 0.9. Titration results were analyzed with Sirius T3 refine software (Sirius T3 v1.1.3.0, Pion Inc. Ltd., Forest Row, East Sussex, UK). Octanol/water partition coefficient (logP) was measured through a potentiometric titration in a biphasic system, using ISA water and n-octanol. Specifically, Sirius T3 control software uses three evaluation models of experimental logP, whose choice is based on the calculated logP values (calclogP < 1, “Low-logP” method; 1 < calclogP < 3, “Medium-logP” method; calclogP > 3, “High-logP” method). Accordingly, the “Medium-logP” method was selected to evaluate the experimental logP (explogP) of the selected compounds. The titration was performed in triplicate and the raw data were elaborated using Sirius T3 refine software. The quality of the analysis was evaluated by comparing the titration curve of each analysis by calculating a root mean square deviation (RMSD). All the analysis yielded RMSD values < 0.5.

Data set [2] can be described thus: Potentiometric logP determination (Sirius T3). Type of data set: physicochemical. The following applies: for logP: n-octanol/ISA water biphasic system, read-out: explogP.
From the text: as §1, §2, §3

In data set [3] the target is recombinant human IDO1 (rhIDO1) (Homo sapiens, UniProt P14902). Kind of data set: Full-point MST binding assay against labelled rhIDO1. The following applies: for BEI (binding efficiency index): BEI = pKd/MW (kDa).
Chain of recombinant human IDO1 (rhIDO1) (P14902 whole entry): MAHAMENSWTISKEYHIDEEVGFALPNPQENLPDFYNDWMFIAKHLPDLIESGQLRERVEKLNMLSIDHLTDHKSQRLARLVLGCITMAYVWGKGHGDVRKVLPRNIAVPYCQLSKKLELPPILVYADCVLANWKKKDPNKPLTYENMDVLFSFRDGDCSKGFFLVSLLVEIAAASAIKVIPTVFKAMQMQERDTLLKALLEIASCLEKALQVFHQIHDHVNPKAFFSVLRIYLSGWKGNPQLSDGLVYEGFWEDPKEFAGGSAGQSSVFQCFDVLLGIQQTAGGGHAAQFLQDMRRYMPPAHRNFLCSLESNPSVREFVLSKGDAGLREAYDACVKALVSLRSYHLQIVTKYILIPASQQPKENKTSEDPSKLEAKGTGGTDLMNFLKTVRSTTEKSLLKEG
The target in data set [4] is fluorescently labelled rhIDO1 (NT650-IDO1) (Homo sapiens, UniProt P14902). Kind of data set: Single-point MST binding assay at 250 µM. The following applies: 250 µM compound, 50 nM labelled rhIDO1; F-norm outside vehicle signal and SD.
Chain of fluorescently labelled rhIDO1 (NT650-IDO1) (P14902 whole entry): as above
Data set [5] relates to P1.HTR cells. Kind of data set: Cytotoxicity seen in the P1.HTR cellular assay. Type of data set: cell-based, mouse. The conditions noted are these: 30 µM, data not shown. Here is the method: Accordingly, no correlation could be found between cellular activities and enzymatic binding data of tested compounds.
A cellular assay was performed to assess the functional activity of confirmed hit compounds against IDO1. Briefly, P1.HTR cells, a highly transfectable clonal variant of mouse mastocytoma P815 [59], were cultured in Iscove’s modified Dulbecco’s medium supplemented with 10% fetal calf serum (FCS), 1 mM glutamine and penicillin/streptomycin at 37 °C in a humidified 7% CO2 incubator. P1.HTR cells were transfected by electroporation with plasmid constructs coding for murine IDO1 (P1.IDO1). A stable transfectant cell line was obtained by puromycin selection. Cells at the concentration of 0.25 × 10^6 cell/mL were incubated with 30 µM of compounds for 16 h, using a culture medium containing L-Trp at a concentration of 78.4 µM and a HEPES buffer at pH 7.2.

Data set [6] concerns the target T1, murine IDO1 (Mus musculus, UniProt P28776).
T1 construct: expressed in transfected cells
Briefly: Cellular assay of IDO1 inhibition, L-Kyn production in P1.HTR cells. Type of data set: cell-based. The conditions noted are these: 16 h; for FC L-Kyn (fold change of L-Kyn production): 30 µM compound, P1.HTR cells stably transfected with murine IDO1, versus vehicle, mean ± SD. The protocol:
The functional activity of confirmed IDO1 ligands was estimated in murine mastocytoma cell line (P1.HTR) stably transfected with murine IDO1. Specifically, P1.HTR cells were cultured in presence of each compound at 30 µM concentration.
Briefly, P1.HTR cells, a highly transfectable clonal variant of mouse mastocytoma P815 [59], were cultured in Iscove’s modified Dulbecco’s medium supplemented with 10% fetal calf serum (FCS), 1 mM glutamine and penicillin/streptomycin at 37 °C in a humidified 7% CO2 incubator. P1.HTR cells were transfected by electroporation with plasmid constructs coding for murine IDO1 (P1.IDO1). A stable transfectant cell line was obtained by puromycin selection.
A cell culture incubated with an equivalent volume of DMSO (the vehicle in which compounds were solubilized) was used as a reference control. After the incubation, supernatants of cell cultures were recovered, and kynurenine concentration was detected by the HPLC method. Every cell assay was conducted in triplicate. Results were expressed as the mean ± standard deviation of the kynurenine fold change (L-Kyn FC), meaning the ratio between kynurenine concentration secreted in the supernatant of the compound-treated versus vehicle-treated cells. The detection of L-Kyn concentrations was performed by using a PerkinElmer, series 200 HPLC instrument. A Kinetex C18 column (250 × 4.6 mm, 5 μm, 100 A; Phenomenex, CA, USA), maintained at the temperature of 25 °C and a pressure of 1800 PSI, was used. […] L-Kyn was detected at 360 nm by an UV detector. The software TURBOCHROM 4 was used for evaluating the concentration of L-Kyn in samples by means of a calibration curve. The detection limit of the analysis was 0.05 μM.

Consider 9 compounds from PMC8999677, “Critical Assessment of a Structure-Based Screening Campaign for IDO1 Inhibitors: Tips and Pitfalls” (International Journal of Molecular Sciences, 2022).

T1 sequence (P28776 whole entry): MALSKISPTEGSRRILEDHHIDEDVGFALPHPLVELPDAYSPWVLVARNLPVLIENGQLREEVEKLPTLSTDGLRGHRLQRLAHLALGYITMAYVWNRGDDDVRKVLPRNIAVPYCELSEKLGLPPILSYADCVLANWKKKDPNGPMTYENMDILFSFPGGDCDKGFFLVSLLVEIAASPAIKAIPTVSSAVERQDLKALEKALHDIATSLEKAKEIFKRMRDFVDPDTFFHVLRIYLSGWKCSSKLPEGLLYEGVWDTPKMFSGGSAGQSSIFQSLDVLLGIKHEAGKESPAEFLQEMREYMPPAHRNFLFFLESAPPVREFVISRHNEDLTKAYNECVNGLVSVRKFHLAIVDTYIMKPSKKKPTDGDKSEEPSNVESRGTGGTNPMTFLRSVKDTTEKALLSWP

Consider `NC(=O)C1CCN(c2ccc3cccc(O)c3n2)CC1` [VIS580 (20)], for which the exppKa in data set [1] was 5.7. Moreover, the logP in data set [2] was determined as 1.9. Further, in data set [3], the Kd came out at 80.7 ± 10.6 µM and the “BEI (binding efficiency index)” value was 15. The “Single-point MST classification” value in data set [4] is listed as “binders”.

Turning to `O=C1Nc2ccccc2/C1=C/C(=O)c1ccccc1` [VIS540 (16)], the Cytotoxicity result in data set [5] is “cytotoxic”. Moreover, in data set [3], the Kd came out at 37.5 ± 11.5 µM and the “BEI (binding efficiency index)” value came to 18. In data set [4], the “Single-point MST classification” value is “binders”.

`O=C(NC1CCC(F)(F)CC1)c1ccc2cc[nH]c2c1` [VIS557 (18)]: in data set [3], the Kd was 4.83 ± 0.61 µM and the “BEI (binding efficiency index)” value is reported as 19. Also, in data set [6] (30 µM), the “Inhibition in P1.HTR cells (in words)” value is “weak inhibitor”. Besides, the “Single-point MST classification” value in data set [4] is “binders”.

`NC(=O)Cn1c(/C=C/c2ccccc2)nc2ccccc21` [VIS539]: the “Single-point MST classification” value in data set [4] is “false positive hit compound”.

With `CN(C(=O)Nc1c[nH]c2ccccc12)c1ccccc1` [VIS544 (17)], in data set [3], the Kd was found to be 59.3 ± 22.9 µM and the “BEI (binding efficiency index)” value came to 16. Also, the “FC L-Kyn (fold change of L-Kyn production)” value in data set [6] is reported as 0.55 ± 0.02. The “Single-point MST classification” value in data set [4] was “binders”.

On to `O=C(/C=C/c1ccco1)c1ccc(O)cc1` [VIS574 (22)], for which the exppKa in data set [1] is 7.8. Moreover, the logP in data set [2] was 2.6. Besides, in data set [3], the dissociation constant (Kd) is 37 ± 16.8 µM and the “BEI (binding efficiency index)” value came out at 21.

For the compound `O=C(NCc1ccccn1)c1nn[nH]c1-c1ccc(F)cc1` [VIS597 (21)], the exppKa in data set [1] is given as 3.9. Moreover, in data set [1] (Sirius T3, value printed after the slash), the “exppKa (second value)” value was found to be 6.3. For the same compound, the logP in data set [2] came to 2. Further, in data set [3], the Kd was determined as 73.3 ± 16.2 µM and the “BEI (binding efficiency index)” value was 14. The “FC L-Kyn (fold change of L-Kyn production)” value in data set [6] worked out at 0.56 ± 0.05. The “Single-point MST classification” value in data set [4] was “binders”.

In the case of `O=C(Nc1nnc(-c2ccc(Cl)cc2)o1)C1CC1` [VIS572 (19)], in data set [1], the exppKa is recorded as 8.1. In data set [2], the logP was 2.1. In addition, in data set [3], the Kd turned out to be 51.9 ± 18.4 µM and the “BEI (binding efficiency index)” value came to 16. In addition, the “Single-point MST classification” value in data set [4] is given as “binders”.

With `OC(CC1c2ccccc2-c2cncn21)C1CCCCC1` (stereo not drawn) [compound 10, NLG919 analogue, reference compound], the exppKa in data set [1] is 6.7. Besides, the explogP in data set [2] (n-octanol/water) came to 3.2.
